Test results reported in PubChem BioAssay AID256 (DTP/NCI, 2004).
Toxic doses and inconclusive results are not listed. How the source made its calls: active means survival T/C of 150% or more; inactive means T/C below 125% in these data.

System: CD2F1 mice, L1210 leukemia ip, survival T/C
Assay: NCI In Vivo Anticancer Drug Screen. Data for tumor model L1210 Leukemia (intraperitoneal) in CD2F1 (CDF1) mice
Details: higher = longer survival
In short: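 Activity against a transplanted murine tumor was judged by comparing the compound group with a vehicle group. The outcome in the treated animals was divided by that in the controls.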

[1] = endpoint: mean survival time, dose: 100.0 mg/kg/injection, schedule: Q01DX009 (ip), vehicle: other
[2] = endpoint: mean survival time, dose: 100.0 mg/kg/injection, schedule: Q04DX003 (ip), vehicle: saline with Tween-80
[3] = endpoint: mean survival time, dose: 200.0 mg/kg/injection, schedule: Q04DX003 (ip), vehicle: saline with Tween-80
[4] = endpoint: mean survival time, dose: 400.0 mg/kg/injection, schedule: Q04DX003 (ip), vehicle: saline with Tween-80
[5] = endpoint: mean survival time, dose: 50.0 mg/kg/injection, schedule: Q01DX009 (ip), vehicle: saline with Tween-80
[6] = endpoint: mean survival time, dose: 100.0 mg/kg/injection, schedule: Q01DX009 (ip), vehicle: saline with Tween-80
[7] = endpoint: mean survival time, dose: 200.0 mg/kg/injection, schedule: Q01DX009 (ip), vehicle: saline with Tween-80

Measured: T/C

CCOC(=O)/C=C(\C)Nc1cccc(NC(C)=O)c1
inactive: endpoint: mean survival time, dose: 12.5 mg/kg/injection, schedule: Q01DX009 (ip), vehicle: other 97 % of control | endpoint: mean survival time, dose: 25.0 mg/kg/injection, schedule: Q01DX009 (ip), vehicle: other 91 % of control | endpoint: mean survival time, dose: 50.0 mg/kg/injection, schedule: Q01DX009 (ip), vehicle: other 91 % of control | [1] 100 % of control | endpoint: mean survival time, dose: 200.0 mg/kg/injection, schedule: Q01DX009 (ip), vehicle: other 91 % of control

CCC(=O)C(C)N(C)C1CCCCC1 (centres undefined)
inactive: endpoint: mean survival time, dose: 100.0 mg/kg/injection, schedule: Q04DX003 (ip), vehicle: saline 100 % of control | endpoint: mean survival time, dose: 200.0 mg/kg/injection, schedule: Q04DX003 (ip), vehicle: saline 102 % of control | endpoint: mean survival time, dose: 400.0 mg/kg/injection, schedule: Q04DX003 (ip), vehicle: saline 96 % of control

COC1OC(COC(C)=O)C(OC(C)=O)C(OC(C)=O)[CH]1[Hg][O]C(C)=O (centres undefined)
inactive: endpoint: mean survival time, dose: 6.25 mg/kg/injection, schedule: Q01DX009 (ip), vehicle: saline 106 % of control | endpoint: mean survival time, dose: 12.5 mg/kg/injection, schedule: Q01DX009 (ip), vehicle: saline 108 % of control | endpoint: mean survival time, dose: 25.0 mg/kg/injection, schedule: Q01DX009 (ip), vehicle: saline 97 % of control

COc1ccc(C(=Cc2cc(OC(C)=O)c3ccccc3c2OC(C)=O)c2ccc(OC)cc2)cc1
inactive: [2] 97 % of control | [3] 89 % of control | [4] 91 % of control

S=c1[nH]ncn1/N=C/c1ccccc1Cl
inactive: [2] 95 % of control | [3] 101 % of control | [4] 89 % of control

COc1cc2c(cc1OC)[C@@H]1C(=O)c3ccc4c(c3O[C@@H]1CO2)C[C@H](C(C)C)O4
inactive: endpoint: median survival time, dose: 6.25 mg/kg/injection, schedule: Q01DX005 (ip), vehicle: Klucel (hydroxypropylcellulose) (HPC) 107 % of control | endpoint: median survival time, dose: 12.5 mg/kg/injection, schedule: Q01DX005 (ip), vehicle: Klucel (hydroxypropylcellulose) (HPC) 115 % of control | endpoint: median survival time, dose: 18.0 mg/kg/injection, schedule: Q01DX005 (ip), vehicle: Klucel (hydroxypropylcellulose) (HPC) 113 % of control | endpoint: median survival time, dose: 25.0 mg/kg/injection, schedule: Q01DX005 (ip), vehicle: Klucel (hydroxypropylcellulose) (HPC) 115 % of control | endpoint: median survival time, dose: 30.0 mg/kg/injection, schedule: Q01DX005 (ip), vehicle: Klucel (hydroxypropylcellulose) (HPC) 118 % of control | endpoint: median survival time, dose: 100.0 mg/kg/injection, schedule: Q01DX005 (ip), vehicle: Klucel (hydroxypropylcellulose) (HPC) 100 % of control

F[Si](c1ccc(Br)cc1)(c1ccc(Br)cc1)c1ccc(Br)cc1
inactive: [5] 102 % of control | [6] 94 % of control | [2] 95 % of control | [3] 93 % of control

CCOC(=O)N(N=O)c1ccc2c(c1)C(=O)c1ccccc1-2
inactive: endpoint: mean survival time, dose: 100.0 mg/kg/injection, schedule: Q01DX001 (ip), vehicle: carboxymethylcellulose (CMC) 103 % of control | endpoint: mean survival time, dose: 200.0 mg/kg/injection, schedule: Q01DX001 (ip), vehicle: carboxymethylcellulose (CMC) 97 % of control | endpoint: mean survival time, dose: 400.0 mg/kg/injection, schedule: Q01DX001 (ip), vehicle: carboxymethylcellulose (CMC) 94 % of control

COc1ccc(C(=Nc2ccc(C)cc2)c2ccc([N+](=O)[O-])cc2)cc1
inactive: [6] 94 % of control | [2] 98 % of control | [7] 98 % of control | [3] 98 % of control | endpoint: mean survival time, dose: 400.0 mg/kg/injection, schedule: Q01DX009 (ip), vehicle: saline with Tween-80 96 % of control | [4] 98 % of control

CC(C)(C)c1ccc(OCCO)cc1
inactive: [1] 108 % of control | [2] 100 % of control

COC(=O)C1(C)CCCC2(C)C3CC4OC4(C(C)C)CC3(O)CCC12 (centres undefined)
inactive: [2] 96 % of control | [3] 96 % of control | [4] 98 % of control

COc1c(O)ccc2c1CCCCC2=O
inactive: [5] 100 % of control | [6] 100 % of control | [7] 100 % of control
